# Tests used:
# [1] = tested on: JVM-3 (B-Cell Non-Hodgkin's Lymphoma); assay: combination Emax (second highest fraction inhibited in the dose matrix, 72 h); higher = more inhibition; extreme values may be limits of the assay
# Summary of the method: (§1)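 Cell lines grown in DMEM/F12 or RPMI with 10% FBS were plated in 1536-well plates and held 24 hours at 37°C, 5% CO2 before 72 hours of exposure to two-drug dose matrices, with DMSO typically at 0.2%. CellTiter-Glo 2.0 luminescence gave viability, which was converted to inhibition. Vehicle wells were set to 0 and blank wells to 1. Combination Emax is the second-highest inhibition in the matrix, and Bliss excess is the observed combination effect minus the expected EA + EB − EA·EB, where EA and EB are the single-agent effects.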
# [2] = tested on: C-4-I (Cervical Carcinoma); assay: Bliss excess, mean over the matrix (fraction); higher = more synergy
# Summary of the method: as §1
# [3] = tested on: JVM-3 (B-Cell Non-Hodgkin's Lymphoma); assay: as above
# Summary of the method: as §1
# YH-13 (Glioblastoma) = assay: as above
# Summary of the method: as §1
# 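Throughout, for Bliss excess, mean over the matrix: after 72 h of two-drug dosing.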
compound,measurement,setting,value
"COc1cccc(OCCCN)c1-c1cc(Nc2cnc(C#N)cn2)n[nH]1 [Prexasertib] + CN(C)CCCOc1ccc(-c2ccc3ncc4c(c3c2)n(C2CCOCC2)c(=O)n4C)cn1 [AZD0156] (first compound max 1 µM, 7x7, partner max 1 µM)",combination Emax,[1],0.985
same,Bliss excess,[2],-0.0273
same,Bliss excess,[3],-0.0097
same,Bliss excess,YH-13 (Glioblastoma),-0.0203
"CCc1c2c(nc3ccc(O)cc13)-c1cc3c(c(=O)n1C2)COC(=O)[C@]3(O)CC [SN-38] + O=C(c1cc(Cc2n[nH]c(=O)c3ccccc23)ccc1F)N1CCN(C(=O)C2CC2)CC1 [Olaparib] (first compound max 0.3 µM, 7x7, partner max 10 µM)",combination Emax,[1],0.998
same,Bliss excess,[2],0.055
same,Bliss excess,[3],0.0365
same,Bliss excess,YH-13 (Glioblastoma),0.0927
"Cc1c2c(nn1C)CSCc1cc(n(C)n1)CSc1cc(c3ccccc3c1)OCCCc1c(C(=O)O)n(C)c3c-2c(Cl)ccc13 [AZD5991] + C[C@@H](Nc1cc(F)cc(F)c1)c1cc(C(=O)N(C)C)cc2c(=O)cc(N3CCOCC3)oc12 [AZD8186] (first compound max 1 µM, 7x7, partner max 3 µM)",combination Emax,[1],0.44
same,Bliss excess,[2],0.0655
same,Bliss excess,[3],-0.0119
same,Bliss excess,YH-13 (Glioblastoma),0.0058
"Cc1c2c(nn1C)CSCc1cc(n(C)n1)CSc1cc(c3ccccc3c1)OCCCc1c(C(=O)O)n(C)c3c-2c(Cl)ccc13 [AZD5991] + Cn1cnc2c(F)c(Nc3ccc(Br)cc3Cl)c(C(=O)NOCCO)cc21 [Selumetinib] (first compound max 1 µM, 7x7, partner max 3 µM)",combination Emax,[1],0.472
same,Bliss excess,[2],0.132
same,Bliss excess,[3],-0.0296
same,Bliss excess,YH-13 (Glioblastoma),-0.0347
"CC1(C)CCC(CN2CCN(c3ccc(C(=O)NS(=O)(=O)c4ccc(NCC5CCOCC5)c([N+](=O)[O-])c4)c(Oc4cnc5[nH]ccc5c4)c3)CC2)=C(c2ccc(Cl)cc2)C1 [Venetoclax] + C[C@@H]1COCCN1C2=NC(=NC(=C2)C3(CC3)[S@](=N)(=O)C)C4=C5C=CNC5=NC=C4 [AZD6738] (first compound max 1 µM, 7x7, partner max 10 µM)",combination Emax,[1],0.9
same,Bliss excess,[2],-0.0398
same,Bliss excess,[3],0.0106
same,Bliss excess,YH-13 (Glioblastoma),-0.0325
"C=CCn1c(=O)c2cnc(Nc3ccc(N4CCN(C)CC4)cc3)nc2n1-c1cccc(C(C)(C)O)n1 [AZD1775] + C[C@@H]1COCCN1C2=NC(=NC(=C2)C3(CC3)[S@](=N)(=O)C)C4=C5C=CNC5=NC=C4 [AZD6738] (first compound max 1 µM, partner max 10 µM)",combination Emax,[1],0.876
same,Bliss excess,[2],0.0088
same,Bliss excess,[3],-0.0178
same,Bliss excess,YH-13 (Glioblastoma),-0.0142
"C=CCn1c(=O)c2cnc(Nc3ccc(N4CCN(C)CC4)cc3)nc2n1-c1cccc(C(C)(C)O)n1 [AZD1775] + O=C(c1cc(Cc2n[nH]c(=O)c3ccccc23)ccc1F)N1CCN(C(=O)C2CC2)CC1 [Olaparib] (first compound max 1 µM, partner max 10 µM)",combination Emax,[1],0.895
same,Bliss excess,[2],0.0103
same,Bliss excess,[3],-0.109
same,Bliss excess,YH-13 (Glioblastoma),-0.0513
"CC1(C)CCC(CN2CCN(c3ccc(C(=O)NS(=O)(=O)c4ccc(NCC5CCOCC5)c([N+](=O)[O-])c4)c(Oc4cnc5[nH]ccc5c4)c3)CC2)=C(c2ccc(Cl)cc2)C1 [Venetoclax] + Cn1cnc2c(F)c(Nc3ccc(Br)cc3Cl)c(C(=O)NOCCO)cc21 [Selumetinib] (first compound max 1 µM, 7x7, partner max 3 µM)",combination Emax,[1],0.486
same,Bliss excess,[2],-0.0299
same,Bliss excess,[3],-0.0583
same,Bliss excess,YH-13 (Glioblastoma),-0.0542
"CC1(C)CCC(CN2CCN(c3ccc(C(=O)NS(=O)(=O)c4ccc(NCC5CCOCC5)c([N+](=O)[O-])c4)c(Oc4cnc5[nH]ccc5c4)c3)CC2)=C(c2ccc(Cl)cc2)C1 [Venetoclax] + C=CCn1c(=O)c2cnc(Nc3ccc(N4CCN(C)CC4)cc3)nc2n1-c1cccc(C(C)(C)O)n1 [AZD1775] (first compound max 1 µM, partner max 1 µM)",combination Emax,[1],0.953
same,Bliss excess,[2],-0.0535
same,Bliss excess,[3],-0.0521
same,Bliss excess,YH-13 (Glioblastoma),-0.0085
"CC1(C)CCC(CN2CCN(c3ccc(C(=O)NS(=O)(=O)c4ccc(NCC5CCOCC5)c([N+](=O)[O-])c4)c(Oc4cnc5[nH]ccc5c4)c3)CC2)=C(c2ccc(Cl)cc2)C1 [Venetoclax] + COc1cc(Nc2ncc3c(n2)-c2ccc(Cl)cc2C(c2c(F)cccc2OC)=NC3)ccc1C(=O)O [Alisertib] (first compound max 1 µM, 7x7, partner max 10 µM)",combination Emax,[1],0.823
same,Bliss excess,[2],-0.0158
same,Bliss excess,[3],0.215
same,Bliss excess,YH-13 (Glioblastoma),0.111
"CC1(C)CCC(CN2CCN(c3ccc(C(=O)NS(=O)(=O)c4ccc(NCC5CCOCC5)c([N+](=O)[O-])c4)c(Oc4cnc5[nH]ccc5c4)c3)CC2)=C(c2ccc(Cl)cc2)C1 [Venetoclax] + CN(C)CCCOc1ccc(-c2ccc3ncc4c(c3c2)n(C2CCOCC2)c(=O)n4C)cn1 [AZD0156] (first compound max 1 µM, 7x7, partner max 1 µM)",combination Emax,[1],0.673
same,Bliss excess,[2],0.0229
same,Bliss excess,[3],0.0085
same,Bliss excess,YH-13 (Glioblastoma),-0.0972
"Cc1c2c(nn1C)CSCc1cc(n(C)n1)CSc1cc(c3ccccc3c1)OCCCc1c(C(=O)O)n(C)c3c-2c(Cl)ccc13 [AZD5991] + CC1(C)CCC(CN2CCN(c3ccc(C(=O)NS(=O)(=O)c4ccc(NCC5CCOCC5)c([N+](=O)[O-])c4)c(Oc4cnc5[nH]ccc5c4)c3)CC2)=C(c2ccc(Cl)cc2)C1 [Venetoclax] (first compound max 1 µM, 7x7, partner max 1 µM)",combination Emax,[1],0.764
same,Bliss excess,[2],-0.0019
same,Bliss excess,[3],0.146
same,Bliss excess,YH-13 (Glioblastoma),-0.0433
"CN(C)CCCOc1ccc(-c2ccc3ncc4c(c3c2)n(C2CCOCC2)c(=O)n4C)cn1 [AZD0156] + CCN(CCO)CCCOc1ccc2c(Nc3cc(CC(=O)Nc4cccc(F)c4)[nH]n3)ncnc2c1 [AZD2811] (first compound max 1 µM, 7x7, partner max 1 µM)",combination Emax,[1],0.543
same,Bliss excess,[2],-0.0074
same,Bliss excess,[3],-0.0252
same,Bliss excess,YH-13 (Glioblastoma),-0.0119
"CN(C)CCCOc1ccc(-c2ccc3ncc4c(c3c2)n(C2CCOCC2)c(=O)n4C)cn1 [AZD0156] + O=C(c1cc(Cc2n[nH]c(=O)c3ccccc23)ccc1F)N1CCN(C(=O)C2CC2)CC1 [Olaparib] (first compound max 3 µM, partner max 3 µM)",combination Emax,[1],0.684
same,Bliss excess,[2],0.0867
same,Bliss excess,[3],0.234
same,Bliss excess,YH-13 (Glioblastoma),0.067
"COc1cccc(OCCCN)c1-c1cc(Nc2cnc(C#N)cn2)n[nH]1 [Prexasertib] + Cc1cc2ncnn2cc1Nc1ncc2c(n1)n(C1CCOCC1)c(=O)n2C [AZD7648] (first compound max 1 µM, 7x7, partner max 10 µM)",combination Emax,[1],0.981
same,Bliss excess,[2],0.0005
same,Bliss excess,[3],-0.027
same,Bliss excess,YH-13 (Glioblastoma),-0.0146
"CN(CCO)CC[C@H](CSc1ccccc1)Nc1ccc(S(=O)(=O)NC(=O)c2ccc(N3CCC([C@@H](O)c4ccccc4-c4ccc(Cl)cc4)CC3)cc2)cc1S(=O)(=O)C(F)(F)F [AZD4320] + CN(C)CCCOc1ccc(-c2ccc3ncc4c(c3c2)n(C2CCOCC2)c(=O)n4C)cn1 [AZD0156] (first compound max 1 µM, 7x7, partner max 1 µM)",combination Emax,[1],0.92
same,Bliss excess,[2],-0.0024
same,Bliss excess,[3],0.0006
same,Bliss excess,YH-13 (Glioblastoma),-0.0489
"COc1cccc(OCCCN)c1-c1cc(Nc2cnc(C#N)cn2)n[nH]1 [Prexasertib] + O=C(c1cc(Cc2n[nH]c(=O)c3ccccc23)ccc1F)N1CCN(C(=O)C2CC2)CC1 [Olaparib] (first compound max 1 µM, 7x7, partner max 10 µM)",combination Emax,[1],0.986
same,Bliss excess,[2],-0.0783
same,Bliss excess,[3],-0.0314
same,Bliss excess,YH-13 (Glioblastoma),-0.0598
"COc1cccc(OCCCN)c1-c1cc(Nc2cnc(C#N)cn2)n[nH]1 [Prexasertib] + C[C@@H]1COCCN1C2=NC(=NC(=C2)C3(CC3)[S@](=N)(=O)C)C4=C5C=CNC5=NC=C4 [AZD6738] (first compound max 1 µM, 7x7, partner max 10 µM)",combination Emax,[1],0.966
same,Bliss excess,[2],-0.0449
same,Bliss excess,[3],-0.0351
same,Bliss excess,YH-13 (Glioblastoma),-0.018
"Cc1c2c(nn1C)CSCc1cc(n(C)n1)CSc1cc(c3ccccc3c1)OCCCc1c(C(=O)O)n(C)c3c-2c(Cl)ccc13 [AZD5991] + CN(C)CCCOc1ccc(-c2ccc3ncc4c(c3c2)n(C2CCOCC2)c(=O)n4C)cn1 [AZD0156] (first compound max 1 µM, 7x7, partner max 1 µM)",combination Emax,[1],0.509
same,Bliss excess,[2],0.0063
same,Bliss excess,[3],-0.0613
same,Bliss excess,YH-13 (Glioblastoma),-0.0465
"Cc1c2c(nn1C)CSCc1cc(n(C)n1)CSc1cc(c3ccccc3c1)OCCCc1c(C(=O)O)n(C)c3c-2c(Cl)ccc13 [AZD5991] + C1CN(CCC1(C(=O)N[C@@H](CCO)C2=CC=C(C=C2)Cl)N)C3=NC=NC4=C3C=CN4 [Capivasertib] (first compound max 1 µM, 7x7, partner max 3 µM)",combination Emax,[1],0.544
same,Bliss excess,[2],0.0117
same,Bliss excess,[3],-0.0363
same,Bliss excess,YH-13 (Glioblastoma),-0.0229
"COc1cccc(OCCCN)c1-c1cc(Nc2cnc(C#N)cn2)n[nH]1 [Prexasertib] + C=CCn1c(=O)c2cnc(Nc3ccc(N4CCN(C)CC4)cc3)nc2n1-c1cccc(C(C)(C)O)n1 [AZD1775] (first compound max 1 µM, partner max 1 µM)",combination Emax,[1],0.973
same,Bliss excess,[2],0.0337
same,Bliss excess,[3],0.0369
same,Bliss excess,YH-13 (Glioblastoma),0.0439
"CCc1c2c(nc3ccc(O)cc13)-c1cc3c(c(=O)n1C2)COC(=O)[C@]3(O)CC [SN-38] + CN(C)CCCOc1ccc(-c2ccc3ncc4c(c3c2)n(C2CCOCC2)c(=O)n4C)cn1 [AZD0156] (first compound max 0.3 µM, 7x7, partner max 1 µM)",combination Emax,[1],0.982
same,Bliss excess,[2],0.115
same,Bliss excess,[3],-0.0309
same,Bliss excess,YH-13 (Glioblastoma),-0.0036
"CN(C)CCCOc1ccc(-c2ccc3ncc4c(c3c2)n(C2CCOCC2)c(=O)n4C)cn1 [AZD0156] + C[C@@H]1COCCN1C2=NC(=NC(=C2)C3(CC3)[S@](=N)(=O)C)C4=C5C=CNC5=NC=C4 [AZD6738] (first compound max 1 µM, 7x7, partner max 10 µM)",combination Emax,[1],0.783
same,Bliss excess,[2],0.0071
same,Bliss excess,[3],-0.0183
same,Bliss excess,YH-13 (Glioblastoma),0.0019
"CCN(CCO)CCCOc1ccc2c(Nc3cc(CC(=O)Nc4cccc(F)c4)[nH]n3)ncnc2c1 [AZD2811] + C=CCn1c(=O)c2cnc(Nc3ccc(N4CCN(C)CC4)cc3)nc2n1-c1cccc(C(C)(C)O)n1 [AZD1775] (first compound max 1 µM, partner max 1 µM)",combination Emax,[1],0.775
same,Bliss excess,[2],0.0264
same,Bliss excess,[3],0.0365
same,Bliss excess,YH-13 (Glioblastoma),-0.003
"CC1(C)CCC(CN2CCN(c3ccc(C(=O)NS(=O)(=O)c4ccc(NCC5CCOCC5)c([N+](=O)[O-])c4)c(Oc4cnc5[nH]ccc5c4)c3)CC2)=C(c2ccc(Cl)cc2)C1 [Venetoclax] + C1CN(CCC1(C(=O)N[C@@H](CCO)C2=CC=C(C=C2)Cl)N)C3=NC=NC4=C3C=CN4 [Capivasertib] (first compound max 1 µM, 7x7, partner max 3 µM)",combination Emax,[1],0.636
same,Bliss excess,[2],-0.0099
same,Bliss excess,[3],0.0192
same,Bliss excess,YH-13 (Glioblastoma),-0.039
